From PubChem BioAssay (NCI)
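96-well plates; 48 h exposure; 5 concentrations. Endpoints by linear interpolation between flanking doses. Not reached: highest tested concentration assigned. TGI denotes the concentration required for complete inhibition of growth.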

What was measured:
Assay in all cases: NCI tumour cell line growth inhibition, 48 h
HOP-62 NSCLC = tested on: HOP-62 NSCLC
NCI-H460 lung = tested on: NCI-H460 lung
CAKI-1 renal = tested on: CAKI-1 renal
786-0 renal = tested on: 786-0 renal
UO-31 renal = tested on: UO-31 renal
HT29 colon = tested on: HT29 colon
SNB-19 CNS = tested on: SNB-19 CNS
RPMI-8226 leukemia = tested on: RPMI-8226 leukemia
SF-539 CNS = tested on: SF-539 CNS
IGROV1 ovarian = tested on: IGROV1 ovarian
ACHN renal = tested on: ACHN renal
OVCAR-3 ovarian = tested on: OVCAR-3 ovarian
M14 melanoma = tested on: M14 melanoma
SF-268 CNS = tested on: SF-268 CNS
TK-10 renal = tested on: TK-10 renal
A549 NSCLC = tested on: A549 NSCLC
SN12C renal = tested on: SN12C renal
T-47D breast = tested on: T-47D breast
MDA-MB-231 breast = tested on: MDA-MB-231 breast
MDA-N = tested on: MDA-N

Row | SMILES | TGI (HOP-62 NSCLC) [µM] | TGI (NCI-H460 lung) [µM] | TGI (CAKI-1 renal) [µM] | TGI (786-0 renal) [µM] | TGI (UO-31 renal) [µM] | TGI (HT29 colon) [µM] | TGI (SNB-19 CNS) [µM] | TGI (RPMI-8226 leukemia) [µM] | TGI (SF-539 CNS) [µM] | TGI (IGROV1 ovarian) [µM] | TGI (ACHN renal) [µM] | TGI (OVCAR-3 ovarian) [µM] | TGI (M14 melanoma) [µM] | TGI (SF-268 CNS) [µM] | TGI (TK-10 renal) [µM] | TGI (A549 NSCLC) [µM] | TGI (SN12C renal) [µM] | TGI (T-47D breast) [µM] | TGI (MDA-MB-231 breast) [µM] | TGI (MDA-N) [µM]
1 | COc1cccc(C2CC23C(=O)NC(=O)NC3=O)c1 (centres undefined) | > 100 | > 100 | > 100 | > 100 | > 100 | > 100 | > 100 | > 100 | > 100 | > 100 | > 100 | > 100 | > 100 | > 100 | > 100 | > 100 | > 100 |  |  | 
2 | O=C(CSc1c2ccccc2nc2ccccc12)Nc1ccccc1-c1ccccc1NC(=O)CSc1c2ccccc2nc2ccccc12 | > 63.3 | > 88.4 | > 73.8 | 69.4 | > 100 | > 100 | > 61.7 | 30.4 | > 64.7 | 42.8 | > 100 | 31 | > 73.9 | > 69.4 | > 100 | > 100 | > 83.5 |  |  | 
3 | C=CCN(C(=O)CNC(=O)C(F)(F)F)c1cc(OCc2ccccc2)c2c(c1)c(C)cn2S(=O)(=O)c1ccccc1 | > 100 | > 100 | > 100 | > 100 | 15.6 | > 100 | > 100 | > 100 | > 100 | > 100 | > 100 | > 100 | > 100 | > 100 | > 100 | > 100 | > 100 | > 100 | > 100 | 
4 | Cc1nn(C(=O)CC(=O)Nc2ccc(Cl)cc2)c(C)c1N=Nc1ccccc1C(=O)O | > 100 | > 100 | > 100 | > 100 | > 100 | > 100 | > 100 | > 100 | > 100 | > 100 |  | > 100 | > 100 | > 100 | > 100 | > 100 | > 100 |  |  | 
5 | COC(=O)[C@@]1(C)/C(=N/NS(=O)(=O)c2ccc(C)cc2)CCC[C@@H]1C | > 100 | > 100 | > 100 | > 100 | > 100 | > 100 | > 100 | 72.6 | > 100 | > 100 | > 100 | > 100 | > 100 | > 100 | > 100 | > 100 | > 100 |  |  | 
6 | CC1(C)OC[C@@H]([C@H](O)C2C=CC(=O)S2)O1 (some centres undefined) | > 100 | > 100 | 72.4 | 59.3 | 50 | 55.5 | > 100 | 53.4 | > 100 |  | 49.2 | > 100 | > 100 | 38.8 | > 100 | > 100 | > 100 |  | 70 | > 100
7 | COC(=O)C(C(=O)Cc1ccccc1[N+](=O)[O-])C(=O)OC | > 100 | > 100 | > 100 | > 100 | > 100 | > 100 | > 100 |  | > 100 | > 100 | > 100 | > 100 | > 100 | > 100 | > 100 | > 100 | > 100 |  |  | 
8 | CNCCCn1c2ccccc2c2c3c(c(-c4ccsc4)cc21)C(=O)NC3=O | 2.24 |  | 2.44 | 1.48 | 0.218 | 2.56 | 3.06 |  | 0.182 | 2.4 | 1.23 | 2.6 | 1.7 | 4 | 3.23 | 2.76 | 2.7 |  | 3.06 | 
9 | CCOC(=O)/C(=C/c1ccc(N(C)C)cc1)N(CC)CC | > 100 |  | > 100 | > 100 | > 100 |  | > 100 | 89 | > 100 | > 100 | > 100 | > 100 | > 100 | > 100 | > 100 | > 100 | > 100 |  |  | 
10 | CCOC1c2cc(C(C)C)c(O)c(O)c2[C@@]23CCCC(C)(C)C2C1OC3=O (some centres undefined) | > 100 | > 100 | > 100 | > 100 | > 100 | > 100 | > 100 | > 100 | > 100 | > 100 | > 100 | > 100 | > 100 | > 100 | > 100 | > 100 | > 100 |  |  | 
11 | CCCCC/C=C1\CCC(CN(C)C)C1=O (centres undefined) | 31.7 | > 100 | 18.4 | 7.02 | 31.4 | 62.3 | 36.9 |  | 24.1 | 32.6 | 27.3 | 30.7 | 28.1 | 41.4 | > 40.1 | > 63.5 | 30.1 |  |  | 
12 | O=S(=O)(c1ccccc1)N1N=C2c3ccccc3CCC[C@H]2C1c1ccccc1 (some centres undefined) | > 100 | > 100 | > 100 | > 100 | > 100 | > 100 | > 100 | > 100 | > 100 | > 100 | > 100 | > 100 | > 100 | > 100 | > 100 | > 100 | > 100 |  |  | 
13 | CSc1ccsc1-c1sc(-c2cc(SC)c(-c3sc(-c4cc(SC)c(-c5sccc5SC)s4)cc3SC)s2)cc1SC | > 100 | > 100 | 34 | 29.1 |  | > 100 | > 100 | > 100 | > 100 | > 100 | > 100 | > 100 | > 100 | > 100 | > 100 | > 100 | > 100 | 82.8 | > 100 | 
